Measurements published in patent publication US20020137929A1, “1 - (3-heterocyclylphenyl) isothiourea, -isourea, -guanidine and -amidine herbicidal agents” (Intellectual Property Department, BASF Aktiengesellschaft, priority 1998, published 2002).

Legend:
AMBEL (Ragweed, Common) = assay: Preemergence herbicidal evaluation; type: in vivo, Ambrosia artemisifolia; settings: preemergence, rated 4-5 weeks after treatment, 0-9 scale
How it was run: (§1)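 Greenhouse preemergence test: seed-soil mix sown on ~1 inch soil; aqueous acetone spray at equivalent of ~0.0156–0.500 kg/ha; greenhouse-held and watered; scored 0–9 visually at 4–5 weeks.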

[1] = tested on: ECHORC (Watergrass (Calif.)); assay: Postemergence weed control under flooded paddy conditions; type: in vivo, Echinochloa oryzoides; settings: postemergence weeds, rated 3 to 4 weeks after treatment
How it was run: (§2)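 Containers holding 3–5 cm weeds and rice at 1.5–2.5 leaves are flooded to 1.5–3 cm above soil. Compound in 50/50 v/v aqueous/acetone is then added directly to the water, about 0.0313–0.500 kg/ha. Plants are kept in the greenhouse and rated 0–9 visually at 3–4 weeks.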

CYPIR (Rice Flatsedge) = assay: Preemergence weed control under flooded paddy conditions; type: in vivo, Cyperus iria; settings: rated 3-4 weeks after treatment
How it was run: (§3)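 Silt loam, seeds in top 0.5 cm; flood held 1.5-3 cm; test cpd as acetone/water 50/50 into flood water, ~0.0313-0.500 kg/ha a.i.; greenhouse 3-4 wk; visual 0-9 score vs control.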

[2] = tested on: IPOHE (Morningglory, Ivyleaf); assay: Preemergence herbicidal evaluation; type: in vivo, Ipomoea hederacea; settings: preemergence, rated 4-5 weeks after treatment, 0-9 scale
How it was run: as §1

CYPSE (Flatsedge) [3] = assay: Postemergence weed control under flooded paddy conditions; type: in vivo, Cyperus serotinus; settings: postemergence weeds, rated 3 to 4 weeks after treatment
How it was run: as §2

GALAP (Galium) = assay: Postemergence herbicidal evaluation; type: in vivo, Galium aparine; settings: postemergence
How it was run: (§4)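 Compound is applied as a foliar spray to seedlings about two weeks old, formulated in equal parts acetone and water with 0.5% TWEEN 20 and delivered at 40 psi to give about 0.0156–0.500 kg per hectare. Injury is rated visually 0–9 after four to five weeks.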

ZEAMX (Corn, Field) [4] = assay: Preemergence herbicidal evaluation; type: in vivo, Zea mays; settings: preemergence, rated 4-5 weeks after treatment, 0-9 scale
How it was run: as §1

CYPSE (Flatsedge) [5] = assay: Preemergence weed control under flooded paddy conditions; type: in vivo, Cyperus serotinus; settings: rated 3-4 weeks after treatment
How it was run: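 Herbicidal effect is scored visually on a 0-9 scale against an untreated control, three to four weeks after compounds are pipetted into the flood water (1.5 to 3 cm deep) over seeds planted in silt loam at 0.5 cm depth. Rates: about 0.0313 to 0.500 kg/ha.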

CASOB (Sicklepod) = assay: Postemergence herbicidal evaluation; type: in vivo, Cassia obtusifolia; settings: postemergence
How it was run: as §4

[6] = tested on: CHEAL (Lambsquarters, Common); assay: Preemergence herbicidal evaluation; type: in vivo, Chenopodium album; settings: preemergence, rated 4-5 weeks after treatment, 0-9 scale
How it was run: as §1

[7] = tested on: ECHORC (Watergrass (Calif.)); assay: Preemergence weed control under flooded paddy conditions; type: in vivo, Echinochloa oryzoides; settings: rated 3-4 weeks after treatment
How it was run: as §3

ZEAMX (Corn, Field) [8] = assay: Postemergence herbicidal evaluation; type: in vivo, Zea mays; settings: postemergence
How it was run: as §4

[9] = tested on: TRZAWR (Wheat, Winter, cv Riband); assay: Preemergence herbicidal evaluation; type: in vivo, Triticum aestivum; settings: preemergence, rated 4-5 weeks after treatment, 0-9 scale
How it was run: as §1

ORYSAT (Rice, Tebonnet) = assay: Preemergence herbicidal evaluation; type: in vivo, Oryza sativa, (L.) Tebonnet; settings: preemergence, rated 4-5 weeks after treatment, 0-9 scale
How it was run: as §1

CC(C)OC(=O)CC1SC(=Nc2cc(-n3c(=O)cc(C(F)(F)F)n(C)c3=O)c(F)cc2Cl)N(C)C1=O (centres unmarked) [Compound 89, Isopropyl 2-{{2-chloro-5-[3,6-dihydro-3-methyl-2,6-dioxo-4-(trifluoromethyl)-1(2H)-pyrimidinyl]-4-fluorophenyl}imino}-3-methyl-4-oxo-5-thiazolidineacetate] was tested, and the AMBEL rating (AMBEL (Ragweed, Common); 0.0156 kg/ha) was 0.0, the AMBEL rating (AMBEL (Ragweed, Common); 0.0313 kg/ha) was 0.5 and the AMBEL rating (AMBEL (Ragweed, Common); 0.0625 kg/ha) was 2.0. For the same compound, the AMBEL rating (AMBEL (Ragweed, Common); 0.1250 kg/ha) was 6.5, the AMBEL rating (AMBEL (Ragweed, Common); 0.2500 kg/ha) was 6.5 and the AMBEL rating (AMBEL (Ragweed, Common); 0.5000 kg/ha) was 9.0. For the same compound, the “Herbicidal rating ECHORC” value ([1]; Rate 0.0313 kg/ha) was 3.0, the “Herbicidal rating ECHORC” value ([1]; Rate 0.0625 kg/ha) was 4.0 and the “Herbicidal rating ECHORC” value ([1]; Rate 0.1250 kg/ha) was 5.0. The “Herbicidal rating ECHORC” value ([1]; Rate 0.2500 kg/ha) was 6.0, the “CYPIR herbicidal effect rating” value (CYPIR (Rice Flatsedge); 0.0313 kg/ha) was 0.0 and the “CYPIR herbicidal effect rating” value (CYPIR (Rice Flatsedge); 0.0625 kg/ha) was 0.0. For the same compound, the “CYPIR herbicidal effect rating” value (CYPIR (Rice Flatsedge); 0.1250 kg/ha) was 2.0, the “CYPIR herbicidal effect rating” value (CYPIR (Rice Flatsedge); 0.2500 kg/ha) was 4.0 and the IPOHE rating ([2]; 0.0156 kg/ha) was 0.0. The IPOHE rating ([2]; 0.0313 kg/ha) was 0.0, the IPOHE rating ([2]; 0.0625 kg/ha) was 0.5 and the IPOHE rating ([2]; 0.1250 kg/ha) was 1.5. The IPOHE rating ([2]; 0.2500 kg/ha) was 9.0, the IPOHE rating ([2]; 0.5000 kg/ha) was 9.0 and the “Herbicidal rating CYPSE” value (CYPSE (Flatsedge) [3]; Rate 0.0313 kg/ha) was 0.0. For the same compound, the “Herbicidal rating CYPSE” value (CYPSE (Flatsedge) [3]; Rate 0.0625 kg/ha) was 0.0, the “Herbicidal rating CYPSE” value (CYPSE (Flatsedge) [3]; Rate 0.1250 kg/ha) was 4.0 and the “Herbicidal rating CYPSE” value (CYPSE (Flatsedge) [3]; Rate 0.2500 kg/ha) was 6.0. The GALAP herbicidal rating (GALAP (Galium); rate 0.0158 kg/ha) was 3.0, the GALAP herbicidal rating (GALAP (Galium); rate 0.0313 kg/ha) was 4.0 and the GALAP herbicidal rating (GALAP (Galium); rate 0.0625 kg/ha) was 5.0. The GALAP herbicidal rating (GALAP (Galium); rate 0.1250 kg/ha) was 9.0, the ZEAMX rating (ZEAMX (Corn, Field) [4]; 0.0156 kg/ha) was 0.0 and the ZEAMX rating (ZEAMX (Corn, Field) [4]; 0.0313 kg/ha) was 0.0. It also gave a ZEAMX rating (ZEAMX (Corn, Field) [4]; 0.0625 kg/ha) of 1.0, a ZEAMX rating (ZEAMX (Corn, Field) [4]; 0.1250 kg/ha) of 6.5 and a ZEAMX rating (ZEAMX (Corn, Field) [4]; 0.2500 kg/ha) of 7.5. The ZEAMX rating (ZEAMX (Corn, Field) [4]; 0.5000 kg/ha) was 9.0, the “CYPSE herbicidal effect rating” value (CYPSE (Flatsedge) [5]; 0.0313 kg/ha) was 0.0 and the “CYPSE herbicidal effect rating” value (CYPSE (Flatsedge) [5]; 0.0625 kg/ha) was 0.0. The “CYPSE herbicidal effect rating” value (CYPSE (Flatsedge) [5]; 0.1250 kg/ha) was 4.0, the “CYPSE herbicidal effect rating” value (CYPSE (Flatsedge) [5]; 0.2500 kg/ha) was 6.0 and the CASOB herbicidal rating (CASOB (Sicklepod); rate 0.0158 kg/ha) was 0.0. It also gave a CASOB herbicidal rating (CASOB (Sicklepod); rate 0.0313 kg/ha) of 6.0, a CASOB herbicidal rating (CASOB (Sicklepod); rate 0.0625 kg/ha) of 9.0 and a CASOB herbicidal rating (CASOB (Sicklepod); rate 0.1250 kg/ha) of 9.0. The CHEAL rating ([6]; 0.0156 kg/ha) was 8.0, the CHEAL rating ([6]; 0.0313 kg/ha) was 9.0 and the CHEAL rating ([6]; 0.0625 kg/ha) was 9.0. For the same compound, the CHEAL rating ([6]; 0.1250 kg/ha) was 9.0, the CHEAL rating ([6]; 0.2500 kg/ha) was 9.0 and the CHEAL rating ([6]; 0.5000 kg/ha) was 9.0. For the same compound, the “ECHORC herbicidal effect rating” value ([7]; 0.0313 kg/ha) was 3.0, the “ECHORC herbicidal effect rating” value ([7]; 0.0625 kg/ha) was 4.0 and the “ECHORC herbicidal effect rating” value ([7]; 0.1250 kg/ha) was 5.0. The “ECHORC herbicidal effect rating” value ([7]; 0.2500 kg/ha) was 6.0, the ZEAMX herbicidal rating (ZEAMX (Corn, Field) [8]; rate 0.0158 kg/ha) was 7.5 and the ZEAMX herbicidal rating (ZEAMX (Corn, Field) [8]; rate 0.0313 kg/ha) was 7.5. It also gave a ZEAMX herbicidal rating (ZEAMX (Corn, Field) [8]; rate 0.0625 kg/ha) of 8.5, a ZEAMX herbicidal rating (ZEAMX (Corn, Field) [8]; rate 0.1250 kg/ha) of 9.0 and a TRZAWR rating ([9]; 0.0156 kg/ha) of 0.0. It also gave a TRZAWR rating ([9]; 0.0313 kg/ha) of 0.0, a TRZAWR rating ([9]; 0.0625 kg/ha) of 0.5 and a TRZAWR rating ([9]; 0.1250 kg/ha) of 2.0. The TRZAWR rating ([9]; 0.2500 kg/ha) was 6.5, the TRZAWR rating ([9]; 0.5000 kg/ha) was 9.0 and the ORYSAT rating (ORYSAT (Rice, Tebonnet); 0.0156 kg/ha) was 0.0. For the same compound, the ORYSAT rating (ORYSAT (Rice, Tebonnet); 0.0313 kg/ha) was 0.5, the ORYSAT rating (ORYSAT (Rice, Tebonnet); 0.0625 kg/ha) was 2.0 and the ORYSAT rating (ORYSAT (Rice, Tebonnet); 0.1250 kg/ha) was 4.5. For the same compound, the ORYSAT rating (ORYSAT (Rice, Tebonnet); 0.2500 kg/ha) was 8.0 and the ORYSAT rating (ORYSAT (Rice, Tebonnet); 0.5000 kg/ha) was 9.0.
